From patent US11547681B2, “N-acylethanolamide derivatives and uses thereof” (ELIEM THERAPEUTICS, INC., priority 2016, dated 2023)

How the values were obtained:
[1] = Plasma stability (37° C., pH 7.4), mouse; type: in vitro ADME, CD-1 mouse; details: for half-life at 1 μM: male, CD-1, mouse, plasma; for % Remaining of Initial / % Remaining of Initial (n = 1), 0 min / % Remaining of Initial (n = 1), 15 min / % Remaining of Initial (n = 1), 30 min / % Remaining of Initial (n = 1), 60 min / % Remaining of Initial (n = 1), 120 min: mouse plasma; for % Remaining of Initial: n = 1; for % Remaining of Initial (n = 1), 0 min: pH 7.4, 0 min; for % Remaining of Initial (n = 1), 15 min: pH 7.4, 15 min; for % Remaining of Initial (n = 1), 30 min: pH 7.4, 30 min; for % Remaining of Initial (n = 1), 60 min: pH 7.4, 60 min; for % Remaining of Initial (n = 1), 120 min: pH 7.4, 120 min; for % Remaining of Initial (n = 1): Mouse plasma
Protocol: (§1) Studies were carried out in mixed-gender human plasma (Lot #GLP530-5), male Sprague-Dawley rat (Lot #RAT297944, RAT313140), male CD-1 mouse (Lot #MSE237700), and male Beagle dog (Lot #BGL87670, BGL82614), collected on sodium heparin. Plasma was adjusted to pH 7.4 prior to initiating the experiments. DMSO stocks were first prepared for the test articles. Aliquots of the DMSO solutions were dosed into 700 μL of plasma, which had been pre-warmed to 37° C., at a final test article concentration of 1 μM. […] Samples were stored at 4° C. until the end of the experiment. After the final time point was sampled, the plate was mixed and then centrifuged at 3,000 rpm for 10 minutes. Calibration standards were prepared in matched matrix. […] Analytical conditions are outlined in Appendix 8-1.
as §1, with “#AS1650-2),” for “#GLP530-5),”, “#RAT297944),” for “#RAT297944, RAT313140),”, “CD-I” for “CD-1”, “#BGL91384),” for “#BGL87670, BGL82614),”, “10-1.” for “8-1.”
(§2) Studies were carried out in mixed-gender human plasma (Lot #AS1650-2), male Sprague-Dawley rat (Lot #RAT297944), male CD-1 mouse (Lot #MSE237700), and male Beagle dog (Lot #BGL91384), collected on sodium heparin. Plasma was adjusted to pH 7.4 prior to initiating the experiments. DMSO stocks were first prepared for test articles. […] Samples were stored at 4° C. until the end of experiment. After the final time point was sampled, the plate was mixed and then centrifuged at 3,000 rpm for 10 minutes. Calibration standards were prepared in matched matrix. […] Analytical conditions are outlined in Appendix 13-1.
(§3) Studies were carried out in mixed-gender human plasma (Lot #AS 1650-2), male Sprague-Dawley rat (Lot #RAT320835), male CD-1 mouse (Lot #MSE260693), and 6 male Beagle dog (Lot #BGL91384), on sodium heparin. Plasma was adjusted to pH 7.4 prior to initiating the experiments. DMSO stocks were first prepared for the test articles. Aliquots of the DMSO solutions were dosed into 700 μL of plasma, which had been pre-warmed to 37° C., at a final test article concentration of 1 μM. […] Samples were stored at 4° C. until the end of the experiment. After the final time point was sampled, the plate was mixed and then centrifuged at 3,000 rpm for 10 minutes. Calibration standards were prepared in matched matrix. […] Analytical conditions are outlined in Appendix 17-1.

[2] = Plasma stability (37° C., pH 7.4), dog; type: in vitro ADME, Beagle dog; details: for % Remaining of Initial / % Remaining of Initial (n = 1), 0 min / % Remaining of Initial (n = 1), 15 min / % Remaining of Initial (n = 1), 30 min / % Remaining of Initial (n = 1), 60 min / % Remaining of Initial (n = 1), 120 min: dog plasma; for % Remaining of Initial: n = 1; for half-life at 1 μM: male, Beagle, dog, plasma; for % Remaining of Initial (n = 1), 0 min: pH 7.4, 0 min; for % Remaining of Initial (n = 1), 15 min: pH 7.4, 15 min; for % Remaining of Initial (n = 1), 30 min: pH 7.4, 30 min; for % Remaining of Initial (n = 1), 60 min: pH 7.4, 60 min; for % Remaining of Initial (n = 1), 120 min: pH 7.4, 120 min; for % Remaining of Initial (n = 1): Dog plasma
Protocol: as §1
as §1, with “#AS1650-2),” for “#GLP530-5),”, “#RAT297944),” for “#RAT297944, RAT313140),”, “CD-I” for “CD-1”, “#BGL91384),” for “#BGL87670, BGL82614),”, “10-1.” for “8-1.”
as §2, §3

[3] = pH 7.4, mouse plasma, read-out: Half-life
[4] = pH 7.4, mouse plasma, test article 1 μM, 37° C., pH 7.4, read-out: Half-life
[5] = pH 7.4, dog plasma, test article 1 μM, 37° C., pH 7.4

Row | SMILES | half-life at 1 μM [1, 4] [min] | % Remaining of Initial (n = 1), 0 min ([1]; test article 1 μM, 37° C.) [%] | % Remaining of Initial (n = 1), 15 min ([1]; test article 1 μM, 37° C.) [%] | % Remaining of Initial (n = 1), 30 min ([1]; test article 1 μM, 37° C.) [%] | % Remaining of Initial (n = 1), 60 min ([1]; test article 1 μM, 37° C.) [%] | % Remaining of Initial (n = 1), 120 min ([1]; test article 1 μM, 37° C.) [%] | % Remaining of Initial (n = 1), 0 min ([2]; test article 1 μM, 37° C.) [%] | % Remaining of Initial (n = 1), 15 min ([2]; test article 1 μM, 37° C.) [%] | % Remaining of Initial (n = 1), 30 min ([2]; test article 1 μM, 37° C.) [%] | % Remaining of Initial (n = 1), 60 min ([2]; test article 1 μM, 37° C.) [%] | % Remaining of Initial (n = 1), 120 min ([2]; test article 1 μM, 37° C.) [%] | half-life at 1 μM [2, 5] [min] | other results
1 | CCCCCCCCCCCCCCCC(=O)NCCOC(=O)CCC(=O)OC(CO)CO [Compound I-8] |  |  |  |  |  |  |  |  |  |  |  |  | half-life at 1 μM [1, 3]: < 1 min; % Remaining of Initial ([1]; 0 min, 1 μM): 100%; % Remaining of Initial ([1]; 15 min, 1 μM): <1.0%; % Remaining of Initial ([1]; 30 min, 1 μM): <1.0%; % Remaining of Initial ([1]; 60 min, 1 μM): <1.0%; % Remaining of Initial ([1]; 120 min, 1 μM): <1.0%; % Remaining of Initial ([2]; 0 min, 1 μM): 100%; % Remaining of Initial ([2]; 15 min, 1 μM): <1.0%; % Remaining of Initial ([2]; 30 min, 1 μM): <1.0%; % Remaining of Initial ([2]; 60 min, 1 μM): <1.0%; % Remaining of Initial ([2]; 120 min, 1 μM): <1.0%; half-life at 1 μM ([2]; pH 7.4, dog plasma): < 1 min
2 | CC/C=C\C/C=C\C/C=C\C/C=C\C/C=C\CCCC(=O)OCCNC(=O)CCCCCCCCCCCCCCC [Compound I-5] | > 120 | 100 | 109 | 86 | 73 | 75 | 100 | 87 | 98 | 87 | 83 | > 120 | half-life at 1 μM ([1]; pH 7.4, mouse plasma, calculated value beyond duration of experiment, read-out: Half-life (min), calculated half-life in parentheses): 213 min
3 | CCCCCCCCCCCCCCCC(=O)NCCOC(=O)CCC(=O)OC(COC(=O)CCC)COC(=O)CCC [Compound I-16] |  |  |  |  |  |  |  |  |  |  |  |  | half-life at 1 μM [1, 3]: < 15 min; half-life at 1 μM ([1]; pH 7.4, mouse plasma, read-out: Half-life, calculated value in parentheses): 4.7 min; % Remaining of Initial ([1]; 0 min, 1 μM): 100%; % Remaining of Initial ([1]; 15 min, 1 μM): 10%; % Remaining of Initial ([1]; 30 min, 1 μM): 4.0%; % Remaining of Initial ([1]; 60 min, 1 μM): 1.1%; % Remaining of Initial ([1]; 120 min, 1 μM): <1.0%; % Remaining of Initial ([2]; 0 min, 1 μM): 100%; % Remaining of Initial ([2]; 15 min, 1 μM): 91%; % Remaining of Initial ([2]; 30 min, 1 μM): 65%; % Remaining of Initial ([2]; 60 min, 1 μM): 39%; % Remaining of Initial ([2]; 120 min, 1 μM): 13%; half-life at 1 μM ([2]; pH 7.4, dog plasma): 44 min
4 | CCCCC/C=C\C/C=C\CCCCCCCC(=O)OCCNC(=O)CCCCCCCCCCCCCCC [Compound I-6] | 56 | 100 | 83 | 89 | 39 | 23 | 100 | 55 | 42 | 34 | 22 | 36 | 
5 | CCCCCCCCCCCCCCCC(=O)NCCOC(=O)CCC(=O)OC[C@H]1O[C@@](CO)(O[C@H]2O[C@H](CO)[C@@H](O)[C@H](O)[C@H]2O)[C@@H](O)[C@@H]1O [Compound I-7] | < 1 | 100 | <1.0 | <1.0 | <1.0 | <1.0 | 100 | <1.0 | <1.0 | <1.0 | <1.0 | < 1 | 
6 | CCCCC/C=C\C/C=C\CCCCCCCC(=O)OCC(COC(=O)CCC(=O)OCCNC(=O)CCCCCCCCCCCCCCC)OC(=O)CCCCCCC/C=C\C/C=C\CCCCC (centres unmarked) [Compound I-13] |  |  |  |  |  |  |  |  |  |  |  |  | % Remaining of Initial (n = 1) ([1]; 0 min, 1 μM): 100%; % Remaining of Initial (n = 1) ([1]; 15 min, 1 μM): 82%; % Remaining of Initial (n = 1) ([1]; 30 min, 1 μM): 71%; % Remaining of Initial (n = 1) ([1]; 60 min, 1 μM): 49%; % Remaining of Initial (n = 1) ([1]; 120 min, 1 μM): 35%; half-life at 1 μM ([1]; pH 7.4, Mouse plasma, 1 μM, read-out: Half-life): 70 min; % Remaining of Initial (n = 1) ([2]; 0 min, 1 μM): 100%; % Remaining of Initial (n = 1) ([2]; 15 min, 1 μM): 90%; % Remaining of Initial (n = 1) ([2]; 30 min, 1 μM): 72%; % Remaining of Initial (n = 1) ([2]; 60 min, 1 μM): 54%; % Remaining of Initial (n = 1) ([2]; 120 min, 1 μM): 23%; half-life at 1 μM ([2]; pH 7.4, Dog plasma, 1 μM): 61 min
7 | CCCCCCCCCCCCCCCC(=O)NCCOC(=O)CCC [Compound I-2] | 62 | 100 | 72 | 71 | 56 | 21 | 100 | 95 | 71 | 54 | 24 | 61 | 
8 | CCCCCCCCCCCCCCCC(=O)NCCOC(=O)CCC(=O)OCC(COC(=O)CCCCCCC)OC(=O)CCCCCCC (centres unmarked) [Compound I-3, PEA-Succinate-Glycerol-Di-Caprylic] | 9.4 | 100 | 23 | 24 | 9.1 | 4.7 | 100 | 90 | 90 | 95 | 99 | > 120 | 

Further lines, with some results ahead:

Row | half-life at 1 μM [1, 4] [min] | % Remaining of Initial (n = 1), 0 min ([1]; test article 1 μM, 37° C.) [%] | % Remaining of Initial (n = 1), 15 min ([1]; test article 1 μM, 37° C.) [%] | % Remaining of Initial (n = 1), 30 min ([1]; test article 1 μM, 37° C.) [%] | % Remaining of Initial (n = 1), 60 min ([1]; test article 1 μM, 37° C.) [%] | % Remaining of Initial (n = 1), 120 min ([1]; test article 1 μM, 37° C.) [%] | % Remaining of Initial (n = 1), 0 min ([2]; test article 1 μM, 37° C.) [%] | % Remaining of Initial (n = 1), 15 min ([2]; test article 1 μM, 37° C.) [%] | % Remaining of Initial (n = 1), 30 min ([2]; test article 1 μM, 37° C.) [%] | % Remaining of Initial (n = 1), 60 min ([2]; test article 1 μM, 37° C.) [%] | % Remaining of Initial (n = 1), 120 min ([2]; test article 1 μM, 37° C.) [%] | half-life at 1 μM [2, 5] [min] | SMILES | other results
9 | 13 | 100 | 49 | 17 | 2.3 | <1.0 | 100 | 8.7 | 12 | 1.2 | <1.0 | 4.7 | CCCCCCCCCCCCCCCC(=O)NCCOC(=O)CCC(=O)OCC(O)CO (centres unmarked) [Compound I-9] | 
10 | 3 | 100 | 2.9 | 2.1 | 1.9 | <1.0 | 100 | 61 | 40 | 18 | 5.4 | 23 | CCCCCCCCCCCCCCCC(=O)NCCOC(=O)CCC(=O)OCC(COC(=O)CCC)OC(=O)CCC (centres unmarked) [Compound I-11] | 
